The data set is described as follows: toxic effects at multiples of the minimum active dose. The class given is in vivo, rats. The conditions noted are these: dosed at one hundred times their minimum effective dose.

Structures are written as SMILES.

Here are results for three molecules from patent US4100274A, “Polypeptide” (Imperial Chemical Industries Limited, priority 1976, dated 1978).

With `CC(C)C[C@H](NC(=O)[C@@H](Cc1ccccc1)NC(=O)[C@H](Cc1ccc(O)cc1)NC(=O)[C@H](CO)NC(=O)[C@H](Cc1c[nH]c2ccccc12)NC(=O)[C@H](Cc1c[nH]cn1)NC(=O)[C@@H]1CCC(=O)N1)C(=O)N[C@@H](CCCNC(=N)N)C(=O)N1CCC[C@H]1C(=O)NNC(N)=O` [Example 4], the toxic effects entry is “no toxic effects”.

In the case of `COc1ccc(C[C@@H](NC(=O)[C@H](Cc2ccc(O)cc2)NC(=O)[C@H](CO)NC(=O)[C@H](Cc2c[nH]c3ccccc23)NC(=O)[C@H](Cc2c[nH]cn2)NC(=O)[C@@H]2CCC(=O)N2)C(=O)N[C@@H](CC(C)C)C(=O)N[C@@H](CCCNC(=N)N)C(=O)N2CCC[C@H]2C(=O)NNC(N)=O)cc1` [Example 6], the toxic effects result is reported as “no toxic effects”.

In the case of `CC(C)C[C@H](NC(=O)[C@@H](COC(C)(C)C)NC(=O)[C@H](Cc1ccc(O)cc1)NC(=O)[C@H](CO)NC(=O)[C@H](Cc1c[nH]c2ccccc12)NC(=O)[C@H](Cc1cnc[nH]1)NC(=O)[C@@H]1CCC(=O)N1)C(=O)N[C@@H](CCCNC(=N)N)C(=O)N1CCC[C@H]1C(=O)NNC(N)=O` [Example 7], the toxic effects entry is given as “no toxic effects”.
